The text below walks through data of patent US20230295152A1 (SENDA BIOSCIENCES, INC., priority 2019, published 2023).

One series has as its target T1, AHR (Homo sapiens, UniProt P35869).
T1 construct: other cell line with a DRE-luciferase reporter stably transfected; endogenous in cells; host or cells: HepG2 AhR-Lucia reporter cells
T1 sequence (P35869 11-848): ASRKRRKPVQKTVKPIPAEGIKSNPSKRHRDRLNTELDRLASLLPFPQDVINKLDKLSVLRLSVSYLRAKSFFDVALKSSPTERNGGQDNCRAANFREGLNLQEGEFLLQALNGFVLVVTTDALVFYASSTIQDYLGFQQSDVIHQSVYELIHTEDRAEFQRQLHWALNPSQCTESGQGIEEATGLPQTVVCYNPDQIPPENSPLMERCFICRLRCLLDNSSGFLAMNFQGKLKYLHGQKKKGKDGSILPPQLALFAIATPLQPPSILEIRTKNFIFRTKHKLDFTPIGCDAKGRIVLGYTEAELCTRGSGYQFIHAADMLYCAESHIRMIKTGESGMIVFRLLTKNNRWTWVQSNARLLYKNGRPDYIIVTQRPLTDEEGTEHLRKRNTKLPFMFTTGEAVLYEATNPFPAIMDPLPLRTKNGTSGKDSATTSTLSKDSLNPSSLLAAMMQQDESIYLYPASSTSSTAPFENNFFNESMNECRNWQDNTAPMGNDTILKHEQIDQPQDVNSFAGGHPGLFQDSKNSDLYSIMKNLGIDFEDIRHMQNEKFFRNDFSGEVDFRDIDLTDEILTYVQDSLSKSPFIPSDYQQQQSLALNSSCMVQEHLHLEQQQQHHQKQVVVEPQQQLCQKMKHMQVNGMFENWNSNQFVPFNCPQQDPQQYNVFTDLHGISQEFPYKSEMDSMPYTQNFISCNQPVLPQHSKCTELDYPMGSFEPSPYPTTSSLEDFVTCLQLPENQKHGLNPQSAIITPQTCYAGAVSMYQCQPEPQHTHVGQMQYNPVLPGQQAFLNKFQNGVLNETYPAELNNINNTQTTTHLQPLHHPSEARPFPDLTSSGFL
The series can be described thus: DRE-Luciferase Reporter Assay, HepG2 AhR-Lucia reporter cells. It is filed as cell-based. The note with it: with AHR activating ligand at EC50, read-out: HepG2-Luc IC50. In outline: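 Antagonism read as inhibition of agonist-driven secreted luciferase in stably DRE-reporter-transfected cells such as HepG2 AhR-Lucia. Agonist ligand at EC50 concentration added 1 hr post-plating alongside antagonist (log series, top 100 uM); supernatant read at 24 or 48 h, IC50 derived against agonist-only maximum.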
A general note: A reporter such as luciferase makes a cellular process visible.

Series [1] is described as follows: Solubility Determination Assay in PBS pH 1.6 and pH 7.4. Conditions: PBS buffer, aqueous buffer, kinetic from dmso stock. It is filed as physicochemical. An outline of the steps:
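Compounds from 10 mM DMSO stock diluted into PBS pH 1.6 or pH 7.4 (15 μL into 485 μL), stirred 2 hours, then filtered. Filtrate quantified by LC-MS/MS against a standard of known concentration with internal standard; single determination.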

Where [2] appears, read: PBS pH 1.6, 25° C., read-out: Aq. Solubility at pH = 1.6.
The mark [3] stands for this setting: PBS pH 7.4, 25° C., read-out: Aq. Solubility at pH = 7.4.

Values after ≈ are worked out from the molar mass of the structure shown. Like-named read-outs stand apart in the source and are kept apart here.

With `C[C@@H](CO)n1cnc2c(-c3cccnc3)nc(-c3ccc(C(F)(F)F)nc3)cc2c1=O` [Compound 12], the IC50 – broadly, the point on the concentration scale where inhibition reaches its midpoint – on AHR was less than 100 nM. The solubility at 2 h in series [1] (setting [2]) and in series [1] (setting [3]) was not below 1 µM throughout.
Take `O=c1c2cc(-c3ccc(C4CC4)nc3)nc(-c3cccnc3)c2ncn1C[C@H](O)C(F)(F)F` [Compound 120, (S)-6-(6-cyclopropylpyridin-3-yl)-8-(pyridin-3-yl)-3-(3,3,3-trifluoro-2-hydroxypropyl)pyrido[3,4-d]pyrimidin-4(3H)-one]: the IC50 on AHR was less than 100 nM. Further, the solubility at 2 h in series [1] (setting [2]) and in series [1] (setting [3]) was not below 1 µM throughout.
Turning to `CC(C)(O)Cn1cnc2c(-c3cccnc3)nc(-c3ccc(C(F)(F)F)nc3)cc2c1=O` [Compound 9], the concentration for half-maximal inhibition (IC50) at AHR was less than 100 nM. For the same compound, the solubility at 2 h in series [1] (setting [2]) and in series [1] (setting [3]) was not below 1 µM each time.
In the case of `C[C@@H](CO)n1cnc2c(-c3cnn(C)c3)nc(-c3ccc(C(F)(F)F)nc3)cc2c1=O` [Compound 68], the concentration for half-maximal inhibition (IC50) at AHR was less than 100 nM. Also, the solubility at 2 h in series [1] (setting [2]) and in series [1] (setting [3]) was not below 1 µM throughout.
As to `Cn1cc(-c2nc(-c3ccc(Cl)cc3)cc3c(=O)n(CC(C)(C)O)cnc23)cn1` [Compound 21], the IC50 on AHR is less than 100 nM. In addition, the solubility at 2 h in series [1] (setting [2]) and in series [1] (setting [3]) was not below 1 µM in each case.
As for `O=c1c2cc(-c3ccc(C(F)(F)F)nc3)nc(-c3cccnc3)c2ncn1C[C@H](O)C(F)(F)F` [Compound 57], on AHR, the half-inhibitory concentration (IC50) was less than 100 nM. Besides, the solubility at 2 h in series [1] (setting [2]) and in series [1] (setting [3]) was not below 1 µM in each case.
For `C[C@@H](O)Cn1cnc2c(-c3cccnc3)nc(-c3ccc(C(F)(F)F)nc3)cc2c1=O` [Compound 112, (R)-3-(2-hydroxypropyl)-8-(pyridin-3-yl)-6-(6-(trifluoromethyl)pyridin-3-yl)pyrido[3,4-d]pyrimidin-4(3H)-one], the concentration for half-maximal inhibition (IC50) on AHR was less than 100 nM. The solubility at 2 h in series [1] (setting [2]) and in series [1] (setting [3]) was not below 1 µM throughout.
As for `CC(C)(O)Cn1cnc2c(-c3cnsc3)nc(-c3ccc(C(F)(F)F)cn3)cc2c1=O` [Compound 101, 3-(2-hydroxy-2-methylpropyl)-8-(isothiazol-4-yl)-6-(5-(trifluoromethyl)pyridin-2-yl)pyrido[3,4-d]pyrimidin-4(3H)-one], at AHR, the IC50 is less than 100 nM. In addition, the solubility (usually how much of the substance goes into solution per volume) at 2 h was 0.1 to 1 µM (≈ 0.0447 to 0.447 µg/mL) in series [1] (setting [2]) and less than 0.1 µM in series [1] (setting [3]).
On to `C[C@@H](CO)n1cnc2c(-c3cccc(F)c3)nc(-c3ccc(C(F)(F)F)cn3)cc2c1=O` [Compound 47, (S)-8-(3-fluorophenyl)-3-(1-hydroxypropan-2-yl)-6-(5-(trifluoromethyl)pyridin-2-yl)pyrido[3,4-d]pyrimidin-4(3H)-one], for which, on AHR, the IC50 is less than 100 nM. Further, the solubility at 2 h in series [1] (setting [3]) lay within 0.1 to 1 µM (≈ 0.0444 to 0.444 µg/mL).
As to `O=c1c2cc(-c3ccc(C(F)(F)F)cn3)nc(-c3cccnc3)c2ncn1[C@@H]1COC[C@H]1O` [Compound 140, 3-((3R,4S)-4-hydroxytetrahydrofuran-3-yl)-8-(pyridin-3-yl)-6-(5-(trifluoromethyl)pyridin-2-yl)pyrido[3,4-d]pyrimidin-4(3H)-one], the IC50 on AHR was less than 100 nM. Besides, the solubility at 2 h in series [1] (setting [2]) and in series [1] (setting [3]) was not below 1 µM throughout.
For `CC(C)(O)Cn1cnc2c(-c3cn[nH]c3)nc(-c3ccc(C(F)(F)F)nc3)cc2c1=O` [Compound 51], the concentration for half-maximal inhibition (IC50) at AHR was less than 100 nM. The solubility at 2 h in series [1] (setting [2]) and in series [1] (setting [3]) was 0.1 to 1 µM (≈ 0.043 to 0.43 µg/mL) throughout.
Turning to `Cc1nc(-c2cc3c(=O)n([C@@H](C)CO)cnc3c(-c3cccnc3)n2)cs1` [Compound 183, (S)-3-(1-hydroxypropan-2-yl)-6-(2-methylthiazol-4-yl)-8-(pyridin-3-yl)pyrido[3,4-d]pyrimidin-4(3H)-one], at AHR, the concentration for half-maximal inhibition (IC50) is more than 500 nM. Also, the solubility at 2 h in series [1] (setting [2]) and in series [1] (setting [3]) was not below 1 µM in each case.
For the compound `O=c1c2cc(-c3ccc(Cl)cc3)nc(-c3cccnc3)c2ncn1C[C@@H](O)C(F)(F)F` (single isomer, unassigned) [185 enantiomer 1], at AHR, the 50% inhibitory concentration (IC50) is less than 100 nM. In addition, the values for the solubility at 2 h in series [1] (setting [2]) and in series [1] (setting [3]) were not below 1 µM and 0.1 to 1 µM (≈ 0.0447 to 0.447 µg/mL), respectively.
As for `C[C@@H](CO)n1cnc2c(-c3cncc(F)c3)nc(-c3ccc(OC(F)(F)F)cc3)cc2c1=O` [Compound 1, (S)-8-(5-fluoropyridin-3-yl)-3-(1-hydroxypropan-2-yl)-6-(4-(trifluoromethoxy)phenyl)pyrido[3,4-d]pyrimidin-4(3H)-one], the IC50 at AHR is less than 100 nM. Besides, the solubility at 2 h in series [1] (setting [3]) lay within 0.1 to 1 µM (≈ 0.046 to 0.46 µg/mL).
For the compound `Cn1cc(-c2nc(-c3ccc(C(F)(F)F)nc3)cc3c(=O)n([C@@H]4COC[C@H]4O)cnc23)cn1` [Compound 115, 3-((3R,4S)-4-hydroxytetrahydrofuran-3-y1)-8-(1-methyl-1H-pyrazol-4-y1)-6-(6-(trifluoromethyl)pyridin-3-yl)pyrido[3,4-d]pyrimidin-4(3H)-one], the 50% inhibitory concentration (IC50) on AHR is less than 100 nM. The solubility at 2 h in series [1] (setting [2]) and in series [1] (setting [3]) was 0.1 to 1 µM (≈ 0.0458 to 0.458 µg/mL) in each case.
`O=c1c2cc(-c3ccc(C(F)(F)F)nc3)nc(-c3cccnc3)c2ncn1[C@H]1COC[C@@H]1O` [Compound 117]: the half-inhibitory concentration (IC50) at AHR was less than 100 nM. Besides, the solubility at 2 h in series [1] (setting [2]) and in series [1] (setting [3]) was not below 1 µM throughout.
Turning to `Cn1cc(-c2nc(-c3ccc(Cl)cc3)cc3c(=O)n([C@H]4COC[C@H]4O)cnc23)cn1` [Compound 92], on AHR, the IC50 was less than 100 nM. Further, the results for the solubility at 2 h in series [1] (setting [2]) and in series [1] (setting [3]) were 0.1 to 1 µM (≈ 0.0424 to 0.424 µg/mL) and less than 0.1 µM, respectively.
The like results for `Cn1cc(-c2nc(-c3ccc(C(F)(F)F)nc3)cc3c(=O)n(CC(C)(C)O)cnc23)cn1` [Compound 60] were, in that order, less than 100 nM, not below 1 µM and not below 1 µM.
As for `Cc1ccc(-c2cc3c(=O)n([C@@H](C)CO)cnc3c(-c3cccnc3)n2)cc1` [Compound 17, (S)-3-(1-hydroxypropan-2-yl)-8-(pyridin-3-yl)-6-(p-tolyl)pyrido[3,4-d]pyrimidin-4(3H)-one], the IC50 at AHR is less than 100 nM. Also, the solubility at 2 h in series [1] (setting [2]) and in series [1] (setting [3]) was not below 1 µM each time.
Turning to `CNC(=O)[C@H](C)n1cnc2c(-c3cccnc3)nc(-c3ccc(C(F)(F)F)nc3)cc2c1=O` [Compound 156, (S)—N-methyl-2-(4-oxo-8-(pyridin-3-yl)-6-(6-(trifluoromethyl)pyridin-3-yl)pyrido[3,4-d]pyrimidin-3(4H)-yl)propanamide], the half-inhibitory concentration (IC50) at AHR was less than 100 nM. Besides, the solubility at 2 h in series [1] (setting [2]) and in series [1] (setting [3]) was not below 1 µM each time.
Turning to `C[C@H](n1cnc2c(-c3cccnc3)nc(-c3cccnc3)cc2c1=O)C(C)(C)O` [Compound 34], at AHR, the IC50 is less than 100 nM. Further, the solubility at 2 h in series [1] (setting [2]) and in series [1] (setting [3]) was not below 1 µM throughout.
Regarding `C[C@@H](CO)n1cnc2c(-c3cccnc3)nc(-c3cnc(C4CC4)s3)cc2c1=O` [Compound 66], on AHR, the concentration for half-maximal inhibition (IC50) was less than 100 nM. Further, the solubility at 2 h in series [1] (setting [2]) and in series [1] (setting [3]) was not below 1 µM throughout.
As to `Cn1cc(-c2nc(-c3cnc(C(F)(F)F)nc3)cc3c(=O)n(CC(C)(C)O)cnc23)cn1` [Compound 99], the concentration for half-maximal inhibition (IC50) at AHR is less than 100 nM. Moreover, the solubility at 2 h is not below 1 µM in series [1] (setting [2]) and 0.1 to 1 µM (≈ 0.0445 to 0.445 µg/mL) in series [1] (setting [3]).
In the case of `C[C@@H](CO)n1cnc2c(-c3cnn(C)c3)nc(-c3ccc(Cl)cc3)cc2c1=O` [Compound 27], the half-maximal inhibitory concentration (IC50) at AHR was less than 100 nM. Also, the solubility at 2 h in series [1] (setting [2]) and in series [1] (setting [3]) was 0.1 to 1 µM (≈ 0.0396 to 0.396 µg/mL) each time.
With `C[C@@H](CO)n1cnc2c(-c3cccc(F)c3)nc(-c3ccc(Cl)cc3)cc2c1=O` [Compound 7], the IC50 at AHR was less than 100 nM. Also, the figures for the solubility at 2 h in series [1] (setting [2]) and in series [1] (setting [3]) were 0.1 to 1 µM (≈ 0.041 to 0.41 µg/mL) and less than 0.1 µM, respectively.
For `Cn1cc(-c2nc(-c3ccc(C4CC4)nc3)cc3c(=O)n(CC(C)(C)O)cnc23)cn1` [Compound 82], the concentration for half-maximal inhibition (IC50) at AHR was less than 100 nM. Moreover, the solubility at 2 h in series [1] (setting [2]) and in series [1] (setting [3]) was not below 1 µM throughout.
Regarding `CC(C)(O)Cn1cnc2c(-c3cccnc3)nc(-c3ccc(C4CC4)nc3)cc2c1=O` [Compound 81], the half-maximal inhibitory concentration (IC50) at AHR was less than 100 nM. The solubility at 2 h in series [1] (setting [2]) and in series [1] (setting [3]) was not below 1 µM throughout.
